Data taken from patent US6844353B2, “Fungicidal properties of sampangine and its analogs to agriculturally important fungal plant pathogens” (The United States of America as represented by the …, priority 2003, dated 2005).
Like-named read-outs stand apart in the source and are kept apart here.

Columns and labels:
[1] = system: C. fragariae isolate CF-75; test: Detached strawberry leaf assay; type: in vivo, Colletotrichum fragariae; conditions: detached strawberry leaves (cultivar Chandler), five days after application
Description: Strawberry plants of the cultivar Chandler were maintained in a warm greenhouse under conditions suitable for optimum vegetative growth. The youngest fully expanded leaf with the entire petiole from each plant was collected. The petiole of each leaf was inserted into a small test tube (10×4 mm) and filled with sterile distilled water. The left leaflet of each leaf was inoculated with C. fragariae isolate CF-75 (1.5×10^6 conidia/ml) using a hand pump sprayer. The inoculated leaves were placed in a dew chamber and incubated overnight at 30° C. and 100% relative humidity, removed from the dew chamber and allowed to dry. The test compound was applied using a chromatography sprayer until the upper surface of each leaflet was coated. After allowing the leaves to air dry for 2 hours, the right leaflet of each leaf was inoculated with C. fragariae isolate CF-75. The leaves were incubated in the dew chamber at 30° C. and 100% relative humidity for 48 hours. The leaves were then removed from the dew chamber and held in a moist chamber for 3 days (total of five days since test compounds were applied). The number of lesions on each leaflet were then counted.

C. gloeosporioides = test: 96-well microtiter plate assay, fungal growth inhibition; type: cell-based, Colletotrichum gloeosporioides; conditions: Colletotrichum gloeosporioides, read-out: Percent inhibition−Percent Stimulation±SEM
Description: (§1) Pathogen production. Isolates of Colletotrichum acutatum Simmonds, Colletotrichum fragariae Brooks, and Colletotrichum gloeosporioides (Penz.) Penz. & Sacc. in Penz. were obtained from B. J. Smith, USDA, ARS, Small Fruit Research Station, Poplarville, Miss. Colletotrichum fragariae (isolate CF63), C. acutatum (isolate CAGoff), and C. gloeosporioides (isolate CG162) were used for all pathogen and bioautography studies. Isolate CF63 is one of the most virulent isolates at infecting strawberry plants and inducing both crown and fruit rot (Smith and Black, 1990). CF63, CAGoff, and CG162 were used as standard test isolates because of our extensive knowledge of these isolates and their known fungicide sensitivity profiles in both bioautography and microtiter formats. The three Colletotrichum species were isolated from strawberry (Fragaria x ananassa Duchesne). Botrytis cinerea Pers.: Fr, was isolated from commercial grape (Vitis vinifera L.) and Fusarium oxysporum Schlechtend: Fr from orchid (Cynoches sp.). Phomopsis viticola (Sacc.) and P. obscurans (Ellis & Everh.) Sutton were from Mike A. Ellis, Ohio State University, Wooster, Ohio. Fungi were grown on potato-dextrose agar (PDA, Difco, Detroit, Mich.) in 9 cm petri dishes and incubated in a growth chamber at 24±2° C. and under cool-white fluorescent lights ([…]·m^−2·sec^−1 light) with 12 hour photoperiod.
(§2) Inoculum preparation. Conidia were harvested from 7-10 day-old cultures by flooding plates with 5 mL of sterile distilled water and dislodging conidia by softly brushing the colonies with an L-shaped glass rod. Conidial suspensions were filtered through sterile miracloth (Calbiochem-Novabiochem Corp., La Jolla, Calif.) to remove mycelia. Conidia concentrations were determined photometrically, from a standard curve based on the percent of transmittance (% T) at 625 nm and suspensions were then adjusted with sterile distilled water to a concentration of 1.0×10^6 conidia/mL.
(§3) Microtiter assay. A standardized 96-well microtiter plate assay developed for discovery of natural product fungicidal agents was used to evaluate naturally occurring antifungal agents from Macaranga monanara. A 96-well microtiter assay was used to determine sensitivity of B. cinerea, C. acutatum, C. fragariae, C. gloeosporioides, F. oxysporum, Phomopsis viticola, and P. obscurans to the various antifungal agents in comparison with known fungicidal standards. Vinclozolin, captan, and thiabendazole, which represent three different modes of action, were used as standards in this experiment. Each fungus was challenged in a dose-response format using test compounds where the final treatment concentrations were 0.3, 3.0 and 30.0 μM. Microtiter plates (Nunc MicroWell, untreated; Roskilde, Denmark) were covered with a plastic lid and incubated in a growth chamber as described previously for fungal growth. Growth was then evaluated by measuring absorbance of each well at 620 nm using a microplate photometer (Packard Spectra Count, Packard Instrument Co., Downers Grove, Ill.). Microtiter plates (Nunc MicroWell, untreated; Roskilde, Denmark) were covered with a plastic lid and incubated in a growth chamber at 24±1° C. and 12 hour photoperiod under 60±5 μmol light. Growth was then evaluated by measuring absorbance of each well at 620 nm using a microplate photometer (Packard Spectra Count, Packard Instrument Co., Downers Grove, Ill.).
(§4) Microbioassy Experimental Design. Chemical sensitivity each of B. cinerea, C. acutatum, C. fragariae, C. gloeosporiodes, F. oxysporum, Phomopsis viticola, and P. obscurans was evaluated using 96-well plate microbioassay format. Each chemical was evaluated in duplicate at each dose (0.3, 3.0 and 30.0 μM). […]

C. acutatum = test: as above; type: cell-based, Colletotrichum acutatum; conditions: Colletotrichum acutatum, read-out: Percent inhibition−Percent Stimulation±SEM
Description: as §1, §2, §3, §4

F. oxysporum = test: as above; type: cell-based, Fusarium oxysporum; conditions: Fusarium oxysporum, read-out: Percent inhibition−Percent Stimulation±SEM
Description: as §1, §2, §3, §4

C. fragariae = test: as above; type: cell-based, Colletotrichum fragariae; conditions: Colletotrichum fragariae, read-out: Percent inhibition−Percent Stimulation±SEM
Description: as §1, §2, §3, §4

B. cinerea = test: as above; type: cell-based, Botrytis cinerea; conditions: Botrytis cinerea, read-out: Percent inhibition−Percent Stimulation±SEM
Description: as §1, §2, §3, §4

In the case of `CO/C=C(/C(=O)OC)c1ccccc1Oc1cc(Oc2ccccc2C#N)ncn1` [Azoxystrobin], the “Disease severity scores (# disease lesions)” value (shortened to “Disease severity scores”) ([1]; Concentration 625 (unit not given)) is reported as 4.46, the “Disease severity scores” value ([1]; Concentration 1250 (unit not given)) is reported as 1.58 and the “Disease severity scores” value ([1]; Concentration 2500 (unit not given)) is reported as 3.54.
Compound `CC(C)NC(=O)N1CC(=O)N(c2cc(Cl)cc(Cl)c2)C1=O` [Iprodione] has an inhibition at 0.3 µM (C. gloeosporioides; 48 h) of -33.4 ± 10.1%, an inhibition at 3 µM (C. gloeosporioides; 48 h) of -49.6 ± 8.4% and an inhibition at 30 µM (C. gloeosporioides; 48 h) of 23.4 ± 9.1%. For the same compound, the inhibition at 0.3 µM (C. gloeosporioides; 72 h) was -17.5 ± 6.7%, the inhibition at 3 µM (C. gloeosporioides; 72 h) was -30.7 ± 4% and the inhibition at 30 µM (C. gloeosporioides; 72 h) was -17.4 ± 7.9%. It also gave an inhibition at 0.3 µM (C. acutatum; 48 h) of -26.4 ± 10.7%, an inhibition at 3 µM (C. acutatum; 48 h) of -18.1 ± 3.2% and an inhibition at 30 µM (C. acutatum; 48 h) of -27.9 ± 5.5%. The inhibition at 0.3 µM (C. acutatum; 72 h) was -26.8 ± 9.9%, the inhibition at 3 µM (C. acutatum; 72 h) was -10.7 ± 3.1% and the inhibition at 30 µM (C. acutatum; 72 h) was -64.8 ± 4%. The inhibition at 0.3 µM (F. oxysporum; 48 h) was 1.8 ± 2.6%, the inhibition at 3 µM (F. oxysporum; 48 h) was 8.3 ± 3.1% and the inhibition at 30 µM (F. oxysporum; 48 h) was 7.7 ± 4.6%. It also gave an inhibition at 0.3 µM (F. oxysporum; 72 h) of -2.3 ± 3%, an inhibition at 3 µM (F. oxysporum; 72 h) of -4.1 ± 4% and an inhibition at 30 µM (F. oxysporum; 72 h) of -11.2 ± 5.3%. It also gave an inhibition at 0.3 µM (C. fragariae; 48 h) of -36.4 ± 12.3%, an inhibition at 3 µM (C. fragariae; 48 h) of -42.6 ± 10.4% and an inhibition at 30 µM (C. fragariae; 48 h) of -63.2 ± 10.7%. The inhibition at 0.3 µM (C. fragariae; 72 h) was -17.1 ± 3.6%, the inhibition at 3 µM (C. fragariae; 72 h) was -24 ± 4.6% and the inhibition at 30 µM (C. fragariae; 72 h) was -57.7 ± 12%. The inhibition at 0.3 µM (B. cinerea; 48 h) was -10.4 ± 11.1%, the inhibition at 3 µM (B. cinerea; 48 h) was 34.2 ± 29.1% and the inhibition at 30 µM (B. cinerea; 48 h) was 38.1 ± 29.3%. The inhibition at 0.3 µM (B. cinerea; 72 h) was 28.3 ± 27.9%, the inhibition at 3 µM (B. cinerea; 72 h) was 43.3 ± 20.5% and the inhibition at 30 µM (B. cinerea; 72 h) was 41.3 ± 20.6%.
